In patent US20120010557A1, “Drug Delivery System for Use in the Treatment of Vascular and Vessel-Related Pathologies” (priority 2009, published 2012):

Experiments:
[1] = not told; cited from earlier work
[2] = tested on: laser-induced thrombus in hamster dorsal skin fold venules; test: Laser-induced thrombosis in hamster dorsal skin fold venules, intravital fluorescence microscopy; type: in vivo; conditions: infused
Text: In the research that led to the invention it was shown that, in PWS vascular analogues (hamster dorsal skin fold venules), the photothermal response is ensued by a hemodynamic response, namely the initiation of primary and secondary hemostasis following laser-induced endovascular damage. There is increasing evidence that misfolded proteins and corollary fibrillar structures referred to as amyloid have the propensity to activate platelets (Herczenik E et al. Arterioscler Thromb Vasc Biol. 2007 July; 27(7):1657-65) and the contact activation pathway (Maas C et al. J Clin Invest. 2008 September; 118(9):3208-18). Inasmuch as thermal coagula are comprised of thermally denatured (i.e., misfolded) proteins, these laser-induced lesions may constitute the basis for the initiation of primary and secondary hemostasis in addition to a thermally afflicted endothelium. […]
FIG. 1: Aggregation of 5,6-carboxyfluorescein (CF)-labeled platelets at the site of laser-induced damage in hamster dorsal skin fold venules as visualized by intravital fluorescence microscopy without (A-F) and with (G-L) priorly infused heparin (Hep). […]

Molecule | Increase in bilayer permeability [1] | Effect on laser-induced thrombus formation / lesional size [2]
CC=CC=CC(=O)OCCCCCCCCCC(=O)OC[C@H](COP(=O)([O-])OCC[N+](C)(C)C)OC(=O)CCCCCCCCCOC(=O)C=CC=CC [bis-SorbPC, 1,2-bis[10-(2′,4′-hexadienoloxy)decanonyl]-sn-glycero-3-phosphocholine] | up to 28.000 fold | 
heparin |  | impeding effect on the lesional size
